≈ marks a conversion by molar mass, not a printed value. Calls of active or inactive are those of the source. Unless noted, the calls are words filed in the database; no cut-off is given here. Bounds are passed on as bounds.

We go through seven compounds from ChEMBL document CHEMBL4673385, “Discovery of Potent Inhibitors of Streptococcus mutans Biofilm with Antivirulence Activity” (ACS Med Chem Lett, 2021).

Series [1] deals with Streptococcus mutans. Briefly: Antibiofilm activity against Streptococcus mutans UA159 assessed as inhibition of biofilm formation by serial dilution method. It is filed as functional, organism-based. The note with it: Streptococcus mutans, UA159; read-out: IC50.
The nature of series [2]: Solubility of compound in water. It is filed as physicochemical. The note with it: water; read-out: solubility.
Series [3] has as its target T1, Glucosyltransferase-I (Streptococcus mutans serotype c (strain ATCC 700610 / UA159)) (UniProt P08987).
T1 sequence (whole entry): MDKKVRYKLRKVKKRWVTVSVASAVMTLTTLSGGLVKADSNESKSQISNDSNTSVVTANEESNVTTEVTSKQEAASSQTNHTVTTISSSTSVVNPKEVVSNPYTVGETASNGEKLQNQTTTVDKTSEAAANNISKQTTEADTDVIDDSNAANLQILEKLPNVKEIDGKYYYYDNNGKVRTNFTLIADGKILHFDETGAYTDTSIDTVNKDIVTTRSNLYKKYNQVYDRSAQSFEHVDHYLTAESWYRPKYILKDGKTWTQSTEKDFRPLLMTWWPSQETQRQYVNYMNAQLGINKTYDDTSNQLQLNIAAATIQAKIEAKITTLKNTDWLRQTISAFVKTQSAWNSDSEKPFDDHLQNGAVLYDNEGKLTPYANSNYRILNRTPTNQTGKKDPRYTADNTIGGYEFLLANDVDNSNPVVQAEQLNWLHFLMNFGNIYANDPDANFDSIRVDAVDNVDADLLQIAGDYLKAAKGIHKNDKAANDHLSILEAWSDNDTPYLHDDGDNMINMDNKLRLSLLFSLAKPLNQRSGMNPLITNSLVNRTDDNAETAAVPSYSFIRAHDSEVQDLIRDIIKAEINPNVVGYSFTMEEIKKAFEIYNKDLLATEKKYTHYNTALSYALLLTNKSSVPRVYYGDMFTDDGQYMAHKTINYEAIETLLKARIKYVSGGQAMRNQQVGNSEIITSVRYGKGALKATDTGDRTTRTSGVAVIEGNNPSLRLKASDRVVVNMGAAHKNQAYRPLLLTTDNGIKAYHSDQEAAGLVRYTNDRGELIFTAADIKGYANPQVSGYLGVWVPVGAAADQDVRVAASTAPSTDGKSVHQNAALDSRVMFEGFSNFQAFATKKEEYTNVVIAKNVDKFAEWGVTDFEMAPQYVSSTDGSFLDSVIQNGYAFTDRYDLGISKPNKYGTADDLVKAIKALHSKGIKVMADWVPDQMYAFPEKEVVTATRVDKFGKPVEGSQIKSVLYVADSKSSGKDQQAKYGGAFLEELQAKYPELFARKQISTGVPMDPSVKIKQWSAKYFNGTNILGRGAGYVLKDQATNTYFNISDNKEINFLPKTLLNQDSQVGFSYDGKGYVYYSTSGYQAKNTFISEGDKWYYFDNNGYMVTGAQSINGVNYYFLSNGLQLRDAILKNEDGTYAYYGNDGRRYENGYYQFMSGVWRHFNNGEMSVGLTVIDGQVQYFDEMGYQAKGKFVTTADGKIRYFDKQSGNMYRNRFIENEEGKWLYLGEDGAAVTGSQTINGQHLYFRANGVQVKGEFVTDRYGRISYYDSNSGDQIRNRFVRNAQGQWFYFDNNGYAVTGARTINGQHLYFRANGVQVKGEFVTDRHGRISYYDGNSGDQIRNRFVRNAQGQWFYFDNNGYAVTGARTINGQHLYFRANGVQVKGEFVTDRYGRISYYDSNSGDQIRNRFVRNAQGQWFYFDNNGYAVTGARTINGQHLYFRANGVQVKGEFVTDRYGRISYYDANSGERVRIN
The series can be described thus: Inhibition of GtfB in Streptococcus mutans UA159 assessed as reduction in glucans level by Coomassie blue dye based SDS-PAGE analysis.

In series [4] the test system is Streptococcus mutans. The series can be described thus: Bactericidal activity against Streptococcus mutans UA159 assessed as reduction in bacterial growth at 100 uM after 24 hrs. It is filed as functional, organism-based.

As to `NC(=O)c1ccccc1NC(=O)c1cc2cc([N+](=O)[O-])ccc2s1`, in the series with Streptococcus mutans [1], the IC50 turned out to be 16.7 µM. Further, the solubility in series [2] stood at 10 µg/mL (≈ 29.3 µM). In addition, the inhibition entry in series [3] was “Active”. The result in the series on Streptococcus mutans [4] was inactive.
The like results for `COC(=O)c1ccc(NC(=O)c2cc3cc([N+](=O)[O-])ccc3s2)cc1` were, in that order, 9.6 µM, 10 µg/mL (≈ 28.1 µM), “Active” and “inactive”.
In the case of `CC(C)(C)OC(=O)NCc1ccccc1NC(=O)c1cc2cc([N+](=O)[O-])ccc2s1`, in the series with Streptococcus mutans [1], the IC50 stood at 51.5 µM. Besides, the solubility in series [2] is under 5 µg/mL. Also, in series [3], the inhibition result was “Active”. For the same compound, the outcome in the series on Streptococcus mutans [4] was inactive.
`CC(C)(C)OC(=O)NCc1ccccc1NC(=O)c1cnc2ccccc2c1`: the IC50 in the series with Streptococcus mutans [1] was found to be 52.8 µM. In addition, the solubility in series [2] came to 15 µg/mL (≈ 39.7 µM). Also, in series [3], the inhibition entry is “Active”. Also, in the series on Streptococcus mutans [4], the outcome was inactive.
As for `NC(=O)c1ccccc1NC(=O)c1cnc2ccccc2c1`, the IC50 with Streptococcus mutans [1] is 15.3 µM. In addition, the solubility in series [2] is 5 µg/mL (≈ 17.2 µM). In addition, the inhibition result in series [3] was “Active”. For the same compound, the result in the series on Streptococcus mutans [4] was inactive.
The like results for `NC(=O)c1cccc(NC(=O)c2cnc3ccccc3c2)c1` were, in that order, 8.6 µM, under 5 µg/mL, “Active” and “inactive”.
As for `O=C(c1ccc(F)cc1)c1ccc(-c2[nH]c(-c3ccc([N+](=O)[O-])cc3O)nc2-c2ccccc2)cc1`, the inhibition result in series [3] is “Active”.

Usually IC50 stands for the midpoint of a concentration-inhibition curve. Broadly, the solubility is the concentration that dissolves in the medium under given conditions.
